Measurements from patent US20080009418A1, “Selective Inhibitors” (Alchemia LTD., priority 2004, published 2008).

Legend:
Human δ-opioid (DOP) = target: T1, Human δ-opioid (DOP) (Homo sapiens, UniProt P41143); test: Radioligand binding, human δ-opioid (DOP) membranes, FlashPlate, [3H]-Bremazocine; settings: compound at 10 μM; for A1 radioligand binding, percentage inhibition / A1: inhibition of radioligand binding, human δ-opioid (DOP): [3H]-Bremazocine
T1 construct: purchased Perkin Elmer Biosignal
How it was run: (§1)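 Cloned human receptor membranes were coated onto FlashPlate wells and incubated with radioligand and compound (added from a 0.5 mM DMSO daughter plate) for 1 hour at room temperature in the dark. Scintillation counting gave percent inhibition, with DMSO defining total and reference ligand defining non-specific binding.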

Human κ-Opioid (KOP) = target: T2, Human κ-Opioid (KOP) (Homo sapiens, UniProt P41145); test: Radioligand binding, human κ-opioid (KOP) membranes, filtration, [3H]-Diprenorphine; settings: compound at 10 μM; for A2 radioligand binding, percentage inhibition / A2: inhibition of radioligand binding, human κ-opioid (KOP): [3H]-Diprenorphine
T2 construct: purchased Perkin Elmer Biosignal
How it was run: (§2)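 Membranes from cloned human receptors were incubated with compound and radioligand for 1 hour at room temperature. Bound ligand was collected on 0.3% PEI-soaked filters, washed with cold 50 mM Tris-HCl pH 7.4, and counted by scintillation. Percent inhibition was computed against DMSO totals and reference-ligand nonspecific wells.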

Human Melanocortin (MC3) = target: T3, Human Melanocortin (MC3) (Homo sapiens, UniProt P41968); test: Radioligand binding, human melanocortin MC3 membranes, FlashPlate, [125I]-NDP-αMSH; settings: compound at 10 μM; for A3 radioligand binding, percentage inhibition / A3: inhibition of radioligand binding, human melanocortin (MC3): [125I]-NDP-αMSH
T3 construct: purchased Perkin Elmer Biosignal
How it was run: as §1

Human Melanocortin (MC4) = target: T4, Human Melanocortin (MC4) (Homo sapiens, UniProt P32245); test: Radioligand binding, human melanocortin MC4 membranes, FlashPlate, [125I]-NDP-αMSH; settings: compound at 10 μM; for A4 radioligand binding, percentage inhibition / A4: inhibition of radioligand binding, human melanocortin (MC4): [125I]-NDP-αMSH
T4 construct: purchased Perkin Elmer Biosignal
How it was run: as §1

Human melanocortin (MC5) = target: T5, Human melanocortin (MC5) (Homo sapiens, UniProt P33032); test: Radioligand binding, human melanocortin MC5 membranes, FlashPlate, [125I]-NDP-αMSH; settings: compound at 10 μM; for A5 radioligand binding, percentage inhibition / A5: inhibition of radioligand binding, human melanocortin (MC5): [125I]-NDP-αMSH
T5 construct: purchased Perkin Elmer Biosignal
How it was run: as §1

[1] = target: T6, Human melanin-concentrating hormone (MCH1) (Homo sapiens, UniProt Q99705); test: Radioligand binding, human melanin-concentrating hormone MCH1 membranes, FlashPlate, [125I]-S36057; settings: compound at 10 μM; for A6 radioligand binding, percentage inhibition / A6: inhibition of radioligand binding, human melanin-concentrating hormone (MCH1): [125I]-S36057
T6 construct: purchased Perkin Elmer Biosignal
How it was run: as §1

Human μ-opioid (MOP) = target: T7, Human μ-opioid (MOP) (Homo sapiens, UniProt P35372); test: Radioligand binding, human μ-opioid (MOP) membranes, FlashPlate, [3H]-Naloxone; settings: compound at 10 μM; for A7 radioligand binding, percentage inhibition / A7: inhibition of radioligand binding, human μ-opioid (MOP): [3H]-Naloxone
T7 construct: purchased Perkin Elmer Biosignal
How it was run: as §1

Human neurokinin (NK1) = target: T8, Human neurokinin (NK1) (Homo sapiens, UniProt P25103); test: Radioligand binding, human neurokinin NK1 membranes, filtration, [125I]-Substance P; settings: compound at 10 μM; for A8 radioligand binding, percentage inhibition / A8: inhibition of radioligand binding, human neurokinin (NK1): [125I]-Substance P
T8 construct: purchased Perkin Elmer Biosignal
How it was run: as §2

[2] = target: T9, Human neuropeptide Y (NPY-Y1) (Homo sapiens, UniProt P25929); test: Radioligand binding, human neuropeptide Y NPY-Y1 membranes, FlashPlate, [125I]-PYY; settings: compound at 10 μM; for A9 radioligand binding, percentage inhibition / A9: inhibition of radioligand binding, human neuropeptide Y (NPY-Y1): [125I]-PYY
T9 construct: purchased Perkin Elmer Biosignal
T9 sequence (P25929 1-384): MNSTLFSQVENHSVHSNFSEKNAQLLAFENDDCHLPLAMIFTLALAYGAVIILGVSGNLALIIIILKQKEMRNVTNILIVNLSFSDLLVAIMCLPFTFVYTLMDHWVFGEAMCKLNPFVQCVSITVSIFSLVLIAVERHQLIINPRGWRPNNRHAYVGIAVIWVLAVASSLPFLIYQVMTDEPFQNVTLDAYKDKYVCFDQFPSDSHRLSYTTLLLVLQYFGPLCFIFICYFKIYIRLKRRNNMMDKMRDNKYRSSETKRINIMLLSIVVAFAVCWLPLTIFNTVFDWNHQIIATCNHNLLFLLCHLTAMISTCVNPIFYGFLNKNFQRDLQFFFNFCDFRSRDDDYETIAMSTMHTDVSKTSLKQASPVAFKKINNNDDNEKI
How it was run: as §1

Human opioid (ORL1) = target: T10, Human opioid (ORL1) (Homo sapiens, UniProt P41146); test: Radioligand binding, human opioid ORL1 membranes, FlashPlate, [125I]-Nociceptin; settings: compound at 10 μM; for A10 radioligand binding, percentage inhibition / A10: inhibition of radioligand binding, human opioid (ORL1): [125I]-Nociceptin
T10 construct: purchased Perkin Elmer Biosignal
How it was run: as §1

Mouse urotensin (mUR2) = target: T11, Mouse urotensin (mUR2) (Mus musculus, UniProt Q8VIH9); test: Radioligand binding, mouse urotensin mUR2 membranes, FlashPlate, [125I]-Urotensin II; settings: compound at 10 μM; for A11 radioligand binding, percentage inhibition / A11: inhibition of radioligand binding, mouse urotensin (mUR2): [125I]-Urotensin II
T11 construct: purchased Perkin Elmer Biosignal
T11 sequence (Q8VIH9 1-385): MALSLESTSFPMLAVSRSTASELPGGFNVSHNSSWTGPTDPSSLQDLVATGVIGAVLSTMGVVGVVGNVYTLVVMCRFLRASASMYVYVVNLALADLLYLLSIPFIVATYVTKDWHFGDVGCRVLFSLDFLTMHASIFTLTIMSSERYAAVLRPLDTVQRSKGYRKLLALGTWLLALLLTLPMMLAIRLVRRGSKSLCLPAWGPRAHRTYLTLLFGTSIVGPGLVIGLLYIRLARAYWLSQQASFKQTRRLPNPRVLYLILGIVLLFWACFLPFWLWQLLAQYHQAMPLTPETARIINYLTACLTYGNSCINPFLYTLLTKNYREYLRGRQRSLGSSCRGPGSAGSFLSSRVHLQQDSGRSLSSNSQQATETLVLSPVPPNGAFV
How it was run: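 Cloned mouse urotensin (mUR2) receptor membranes from Perkin Elmer Biosignal were immobilized in FlashPlate microplates using a proprietary coating. Each well got 19.5 μl buffer, then 0.5 μl of DMSO, reference ligand, or compound. Adding 5 μl of [125I]-Urotensin II, diluted to 5× final concentration in binding buffer, started binding. Plates were sealed with TopSeal-A and incubated 1 hour at room temperature in the dark. Wells were counted for 30 seconds each on a TopCount after a 60-second delay, and percentage inhibition was calculated.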

T8 sequence (P25103 whole entry): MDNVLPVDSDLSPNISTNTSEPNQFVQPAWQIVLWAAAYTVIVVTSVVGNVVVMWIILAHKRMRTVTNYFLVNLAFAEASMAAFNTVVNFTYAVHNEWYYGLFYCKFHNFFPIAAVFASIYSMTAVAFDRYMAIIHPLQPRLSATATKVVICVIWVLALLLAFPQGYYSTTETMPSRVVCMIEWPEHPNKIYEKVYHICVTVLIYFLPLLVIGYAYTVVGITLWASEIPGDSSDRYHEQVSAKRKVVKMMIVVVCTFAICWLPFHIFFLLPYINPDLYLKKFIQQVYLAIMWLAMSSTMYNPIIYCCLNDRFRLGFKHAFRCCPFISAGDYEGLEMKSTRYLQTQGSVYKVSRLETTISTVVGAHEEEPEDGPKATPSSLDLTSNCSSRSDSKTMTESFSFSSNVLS
T1 sequence (P41143 whole entry): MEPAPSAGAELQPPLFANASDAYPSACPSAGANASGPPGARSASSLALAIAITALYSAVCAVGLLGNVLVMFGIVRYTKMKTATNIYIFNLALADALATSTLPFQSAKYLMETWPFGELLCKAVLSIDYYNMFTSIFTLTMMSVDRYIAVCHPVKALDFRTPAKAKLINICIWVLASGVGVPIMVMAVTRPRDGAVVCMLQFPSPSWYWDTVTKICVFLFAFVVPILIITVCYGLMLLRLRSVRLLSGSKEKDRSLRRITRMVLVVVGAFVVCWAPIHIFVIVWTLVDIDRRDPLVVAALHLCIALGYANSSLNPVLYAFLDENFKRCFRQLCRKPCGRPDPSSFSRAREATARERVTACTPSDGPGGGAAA
T5 sequence (P33032 whole entry): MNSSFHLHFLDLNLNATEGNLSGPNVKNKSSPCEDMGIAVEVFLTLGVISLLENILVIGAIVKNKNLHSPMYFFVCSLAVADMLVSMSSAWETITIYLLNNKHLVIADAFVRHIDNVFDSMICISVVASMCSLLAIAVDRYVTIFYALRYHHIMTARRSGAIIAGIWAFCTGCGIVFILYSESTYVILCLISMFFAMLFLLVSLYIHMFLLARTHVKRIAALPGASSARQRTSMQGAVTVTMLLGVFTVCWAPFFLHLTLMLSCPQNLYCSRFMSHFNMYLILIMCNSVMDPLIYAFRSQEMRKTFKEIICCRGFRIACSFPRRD
T7 sequence (P35372 whole entry): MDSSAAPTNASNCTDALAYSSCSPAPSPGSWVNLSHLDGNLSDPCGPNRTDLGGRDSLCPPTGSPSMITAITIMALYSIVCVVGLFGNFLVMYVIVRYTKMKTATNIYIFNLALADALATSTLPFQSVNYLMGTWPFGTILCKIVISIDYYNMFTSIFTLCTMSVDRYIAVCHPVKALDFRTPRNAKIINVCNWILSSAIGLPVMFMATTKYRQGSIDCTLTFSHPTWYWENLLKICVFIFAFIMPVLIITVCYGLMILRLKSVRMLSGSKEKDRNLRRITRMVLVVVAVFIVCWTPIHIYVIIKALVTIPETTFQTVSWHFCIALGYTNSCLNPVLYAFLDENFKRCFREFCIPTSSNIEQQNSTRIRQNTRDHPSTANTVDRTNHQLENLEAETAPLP
T6 sequence (Q99705 whole entry): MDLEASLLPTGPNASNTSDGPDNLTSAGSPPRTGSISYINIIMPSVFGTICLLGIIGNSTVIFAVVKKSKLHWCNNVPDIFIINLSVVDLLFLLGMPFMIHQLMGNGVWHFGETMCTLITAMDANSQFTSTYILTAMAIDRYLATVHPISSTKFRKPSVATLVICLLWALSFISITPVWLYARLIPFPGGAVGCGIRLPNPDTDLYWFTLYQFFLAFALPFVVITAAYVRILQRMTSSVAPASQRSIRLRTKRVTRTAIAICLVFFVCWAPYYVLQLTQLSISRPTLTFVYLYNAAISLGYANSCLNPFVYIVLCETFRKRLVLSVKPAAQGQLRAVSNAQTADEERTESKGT
T2 sequence (P41145 whole entry): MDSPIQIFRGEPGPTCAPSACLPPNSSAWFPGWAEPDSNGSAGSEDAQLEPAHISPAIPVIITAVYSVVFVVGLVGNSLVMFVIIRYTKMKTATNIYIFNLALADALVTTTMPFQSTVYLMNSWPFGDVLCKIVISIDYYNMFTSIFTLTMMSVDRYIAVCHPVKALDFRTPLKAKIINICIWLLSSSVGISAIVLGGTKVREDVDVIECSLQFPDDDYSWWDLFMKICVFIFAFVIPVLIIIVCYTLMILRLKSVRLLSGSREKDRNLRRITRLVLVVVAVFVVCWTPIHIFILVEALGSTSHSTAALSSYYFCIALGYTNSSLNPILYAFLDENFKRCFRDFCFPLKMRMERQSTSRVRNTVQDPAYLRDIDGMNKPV
T4 sequence (P32245 whole entry): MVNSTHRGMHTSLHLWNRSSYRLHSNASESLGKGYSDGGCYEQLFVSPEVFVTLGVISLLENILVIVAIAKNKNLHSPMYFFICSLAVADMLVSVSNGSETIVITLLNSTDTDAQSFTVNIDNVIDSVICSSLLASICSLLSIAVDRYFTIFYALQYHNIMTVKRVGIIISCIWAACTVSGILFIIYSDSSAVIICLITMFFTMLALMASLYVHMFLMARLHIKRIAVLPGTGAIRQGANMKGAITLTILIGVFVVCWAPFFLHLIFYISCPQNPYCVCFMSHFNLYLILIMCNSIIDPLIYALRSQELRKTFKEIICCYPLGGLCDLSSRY
T3 sequence (P41968 whole entry): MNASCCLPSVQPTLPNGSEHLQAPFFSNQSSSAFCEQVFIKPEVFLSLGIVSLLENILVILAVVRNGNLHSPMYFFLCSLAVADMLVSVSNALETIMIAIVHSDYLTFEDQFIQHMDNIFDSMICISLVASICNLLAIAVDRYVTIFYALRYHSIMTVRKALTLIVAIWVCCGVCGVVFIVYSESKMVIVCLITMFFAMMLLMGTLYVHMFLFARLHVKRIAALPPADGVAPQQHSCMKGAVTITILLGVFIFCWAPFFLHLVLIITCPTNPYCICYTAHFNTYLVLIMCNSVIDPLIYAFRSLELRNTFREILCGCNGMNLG
T10 sequence (P41146 whole entry): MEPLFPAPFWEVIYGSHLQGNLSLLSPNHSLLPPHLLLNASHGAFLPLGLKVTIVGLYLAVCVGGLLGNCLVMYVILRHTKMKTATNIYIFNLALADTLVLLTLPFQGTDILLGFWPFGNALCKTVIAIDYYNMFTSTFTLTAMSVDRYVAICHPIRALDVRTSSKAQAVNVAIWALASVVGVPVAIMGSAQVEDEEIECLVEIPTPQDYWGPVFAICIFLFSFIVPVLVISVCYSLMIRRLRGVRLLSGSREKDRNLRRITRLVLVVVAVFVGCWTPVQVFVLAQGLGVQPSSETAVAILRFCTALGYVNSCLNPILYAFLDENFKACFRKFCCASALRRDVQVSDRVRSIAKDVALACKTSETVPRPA

Structure (SMILES)	A1 radioligand binding, percentage inhibition (Human δ-opioid (DOP))	A2 radioligand binding, percentage inhibition (Human κ-Opioid (KOP))	A3 radioligand binding, percentage inhibition (Human Melanocortin (MC3))	A4 radioligand binding, percentage inhibition (Human Melanocortin (MC4))	A5 radioligand binding, percentage inhibition (Human melanocortin (MC5))	A6 radioligand binding, percentage inhibition [1]	A7 radioligand binding, percentage inhibition (Human μ-opioid (MOP))	A8 radioligand binding, percentage inhibition (Human neurokinin (NK1))	A9 radioligand binding, percentage inhibition [2]	A10 radioligand binding, percentage inhibition (Human opioid (ORL1))	A11 radioligand binding, percentage inhibition (Mouse urotensin (mUR2))	A1: inhibition of radioligand binding, human δ-opioid (DOP) (Human δ-opioid (DOP))	A2: inhibition of radioligand binding, human κ-opioid (KOP) (Human κ-Opioid (KOP))	A3: inhibition of radioligand binding, human melanocortin (MC3) (Human Melanocortin (MC3))	A4: inhibition of radioligand binding, human melanocortin (MC4) (Human Melanocortin (MC4))	A5: inhibition of radioligand binding, human melanocortin (MC5) (Human melanocortin (MC5))	A6: inhibition of radioligand binding, human melanin-concentrating hormone (MCH1) [1]	A7: inhibition of radioligand binding, human μ-opioid (MOP) (Human μ-opioid (MOP))	A8: inhibition of radioligand binding, human neurokinin (NK1) (Human neurokinin (NK1))	A9: inhibition of radioligand binding, human neuropeptide Y (NPY-Y1) [2]	other results
COC[C@H]1OC(OCc2ccc(-c3ccccc3)cc2)[C@H](NC(=O)CNC(=N)N)[C@@H](OCc2cccc(O)c2)[C@@H]1O (stereo partly shown) [compound 129]	− (“−” indicates less than 50% inhibition at 10 μM)	− (“−” indicates less than 50% inhibition at 10 μM)	− (“−” indicates less than 50% inhibition at 10 μM)	− (“−” indicates less than 50% inhibition at 10 μM)	− (“−” indicates less than 50% inhibition at 10 μM)	− (“−” indicates less than 50% inhibition at 10 μM)	+ (“+” indicates greater than 50% inhibition at 10 μM)	− (“−” indicates less than 50% inhibition at 10 μM)	− (“−” indicates less than 50% inhibition at 10 μM)	− (“−” indicates less than 50% inhibition at 10 μM)	− (“−” indicates less than 50% inhibition at 10 μM)										
NCCC(=O)NC1C(OCc2ccc(Cl)cc2)OC(COCc2ccc3ccccc3c2)C(O)C1OCc1ccccc1 (single isomer, unassigned) [compound 484]												− (“−” indicates less than 50% inhibition at 10 μM)	− (“−” indicates less than 50% inhibition at 10 μM)	− (“−” indicates less than 50% inhibition at 10 μM)	− (“−” indicates less than 50% inhibition at 10 μM)	+ (“+” indicates greater than 50% inhibition at 10 μM)	− (“−” indicates less than 50% inhibition at 10 μM)	− (“−” indicates less than 50% inhibition at 10 μM)	+ (“+” indicates greater than 50% inhibition at 10 μM)	− (“−” indicates less than 50% inhibition at 10 μM)	A10: inhibition of radioligand binding, human opioid (ORL1) (Human opioid (ORL1)): − (“−” indicates less than 50% inhibition at 10 μM); A11: inhibition of radioligand binding, mouse urotensin (mUR2) (Mouse urotensin (mUR2)): − (“−” indicates less than 50% inhibition at 10 μM)
COC[C@H]1OC(OCc2ccc(-c3ccccc3)cc2)[C@H](NC(=O)CCNC(=N)N)[C@@H](OCc2ccc3ccccc3c2)[C@@H]1O (stereo partly shown) [compound 4]																					A1 radioligand binding inhibition (Human δ-opioid (DOP); human δ-opioid (DOP) membranes): − (“−” indicates less than 50% inhibition at 10 μM); A2 radioligand binding inhibition (Human κ-Opioid (KOP); human κ-opioid (KOP) membranes): − (“−” indicates less than 50% inhibition at 10 μM); A3 radioligand binding inhibition (Human Melanocortin (MC3); human melanocortin MC3 membranes): − (“−” indicates less than 50% inhibition at 10 μM); A4 radioligand binding inhibition (Human Melanocortin (MC4); human melanocortin MC4 membranes): − (“−” indicates less than 50% inhibition at 10 μM); A5 radioligand binding inhibition (Human melanocortin (MC5); human melanocortin MC5 membranes): + (“+” indicates greater than 50% inhibition at 10 μM); A6 radioligand binding inhibition ([1]; human MCH1 membranes): + (“+” indicates greater than 50% inhibition at 10 μM); A7 radioligand binding inhibition (Human μ-opioid (MOP); human μ-opioid (MOP) membranes): − (“−” indicates less than 50% inhibition at 10 μM); A8 radioligand binding inhibition (Human neurokinin (NK1); human neurokinin NK1 membranes): + (“+” indicates greater than 50% inhibition at 10 μM); A9 radioligand binding inhibition ([2]; human NPY-Y1 membranes): − (“−” indicates less than 50% inhibition at 10 μM); A10 radioligand binding inhibition (Human opioid (ORL1); human ORL1 membranes): − (“−” indicates less than 50% inhibition at 10 μM); A11 radioligand binding inhibition (Mouse urotensin (mUR2); mouse urotensin mUR2 membranes): − (“−” indicates less than 50% inhibition at 10 μM)
CSC1OC(COCc2ccc(Cl)cc2)C(O)C(OCc2ccc3ccccc3c2)C1NC(=O)CNC(=N)N (stereo not shown) [compound 307]												− (“−” indicates less than 50% inhibition at 10 μM)	− (“−” indicates less than 50% inhibition at 10 μM)	+ (“+” indicates greater than 50% inhibition at 10 μM)	+ (“+” indicates greater than 50% inhibition at 10 μM)	+ (“+” indicates greater than 50% inhibition at 10 μM)	− (“−” indicates less than 50% inhibition at 10 μM)	− (“−” indicates less than 50% inhibition at 10 μM)	+ (“+” indicates greater than 50% inhibition at 10 μM)	− (“−” indicates less than 50% inhibition at 10 μM)	A10: inhibition of radioligand binding, human opioid (ORL1) (Human opioid (ORL1)): − (“−” indicates less than 50% inhibition at 10 μM); A11: inhibition of radioligand binding, mouse urotensin (mUR2) (Mouse urotensin (mUR2)): − (“−” indicates less than 50% inhibition at 10 μM)
CO[C@H]1[C@H](O)[C@@H](COCc2cccc(O)c2)OC(OCc2ccc(-c3ccccc3)cc2)[C@@H]1NC(=O)CCCN (stereo partly shown) [compound 148]	− (“−” indicates less than 50% inhibition at 10 μM)	− (“−” indicates less than 50% inhibition at 10 μM)	− (“−” indicates less than 50% inhibition at 10 μM)	− (“−” indicates less than 50% inhibition at 10 μM)	− (“−” indicates less than 50% inhibition at 10 μM)	− (“−” indicates less than 50% inhibition at 10 μM)	− (“−” indicates less than 50% inhibition at 10 μM)	+ (“+” indicates greater than 50% inhibition at 10 μM)	− (“−” indicates less than 50% inhibition at 10 μM)	− (“−” indicates less than 50% inhibition at 10 μM)	− (“−” indicates less than 50% inhibition at 10 μM)										
